The values that follow come from US11220527B2, “Peptides derived from the propeptide NTSR3 and their use in the treatment of depression” (CENTRE NATIONAL DE LA RECHERCHE SCIENTIFIQUE, priority 2016, dated 2022).

One test deals with T1, TREK-1 channel (Homo sapiens, UniProt O95069).
T1 sequence (O95069 1-426): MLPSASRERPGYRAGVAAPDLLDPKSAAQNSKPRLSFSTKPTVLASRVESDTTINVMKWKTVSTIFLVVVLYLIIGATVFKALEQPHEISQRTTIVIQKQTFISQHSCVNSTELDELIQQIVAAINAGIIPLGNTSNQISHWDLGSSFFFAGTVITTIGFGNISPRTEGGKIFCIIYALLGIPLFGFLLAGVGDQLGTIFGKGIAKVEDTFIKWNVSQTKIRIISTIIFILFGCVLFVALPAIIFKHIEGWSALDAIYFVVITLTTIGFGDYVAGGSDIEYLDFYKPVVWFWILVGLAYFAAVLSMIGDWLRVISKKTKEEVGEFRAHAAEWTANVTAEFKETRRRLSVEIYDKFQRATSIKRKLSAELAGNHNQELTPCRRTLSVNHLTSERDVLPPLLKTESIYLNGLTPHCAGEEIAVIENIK
The experiment in a line: Whole-cell patch clamp of TREK-1 channel activity in hTREK-1/HEK293 cells. Format: cell-based. Further details: expressed in transfected cells. The conditions noted are these: dose-response measured at 0 mV, sigmoidal fit, FIG. 2; read-out: half-effect concentration (IC50) of TREK-1 channel activity inhibition. The method, then:
All experiments measuring the effect of spadin analogs and spadin were performed on ßTC3 or LNCaP or HEK293 cells stably transfected with the TREK-1 channel, hTREK-1/HEK293. The hTREK-1/HEK293 cell line was prepared in the laboratory. These cells also express a reporter gene: E-Green Fluorescent Protein (EGFP) enabling their visualization.
These cells were seeded at a density of 20,000 cells/dish of 35 mm diameter, 24 to 72 hours before being used.
The HEK293 cells were cultured in DMEM medium (Gibco)/10% fetal calf serum (FCS, ICN)/1% streptomycin+penicillin mixture (Gibco)/1% glutamax (Gibco)/0.5 mg/mL of G418 (Sigma) at 37° C. in the presence of 5% CO2.
The LNCaP cells were cultured in DMEM medium (Gibco)/10% fetal calf serum (FCS, ICN)/1% streptomycin+penicillin mixture (Gibco)/1% glutamax (Gibco)/at 37° C. in the presence of 5% CO2. […] From day 2 to day 4, the cells were measured by electrophysiological methods.
All measurements were made at room temperature, i.e. at 21-22° C. The hTREK-1/HEK293 cells were identified by the fluorescence emitted by EGFP after excitation at 480 nm. […]
The cell culture medium was replaced with a solution 150 mM NaCl, 5 mM KCl, 3 mM MgCl2, 1 mM CaCl2, 10 mM HEPES/NaOH pH 7.4 containing 10 mM tetraethylammonium chloride, 3 mM 4-aminopyridine. […] The resting potential of the membrane of the measured cell was set at −80 mV. […]
On the technique in general: In patch-clamp work, channel activity is measured electrically.

A short description of test [1]: Learned helplessness test (LHT). The format is in vivo. The conditions noted are these: mice, bolus of 100 μL of a 10^-6 M solution 30 minutes before conditioning, FIG. 4. The method, then:
Learned resignation or learned helplessness is a model based on the repeated administration of electric shocks to induce a resigned state in the animal.
The apparatus comprises two compartments separated by a sliding door and with a floor consisting of a metal grid through which the electrical pulses are administered. The learned helplessness protocol is divided into two stages, an animal conditioning stage and a test stage.
The conditioning was carried out over a period of four days during which time the mice received 360 non-avoidable electric shocks of 0.3 mA for one hour (the door, separating the two compartments, being closed). The shocks lasted for 2 seconds and an interval of 8 seconds was respected between each shock. This conditioning step leads to a phenomenon of helplessness in animals.
On the day of the test, the mice were placed in the same compartments but with a possibility of escaping the shock. The test counted 30 trials. During the administration of the shock, the door separating the two compartments opened, allowing the animals to flee. When the animal changes compartment the test is finished and the shock stops. […] This test made it possible to record the escape latencies of the animals. The thirty tests were then grouped by 5 and the average escape time was calculated. […]

Where no end group is shown, it is not given here.

In the case of AVSWGLR [G/A-PE(22-28), AVSWGLR], the IC50 at TREK-1 channel turned out to be 0.12 nM. Besides, the “escape latencies in the learned helplessness test” value in test [1] is given as “capable of reducing the escape latencies”.
